For this experiment, the target named is T1, Bile salt-activated lipase (Bos taurus, UniProt P30122).
T1 sequence (P30122 whole entry): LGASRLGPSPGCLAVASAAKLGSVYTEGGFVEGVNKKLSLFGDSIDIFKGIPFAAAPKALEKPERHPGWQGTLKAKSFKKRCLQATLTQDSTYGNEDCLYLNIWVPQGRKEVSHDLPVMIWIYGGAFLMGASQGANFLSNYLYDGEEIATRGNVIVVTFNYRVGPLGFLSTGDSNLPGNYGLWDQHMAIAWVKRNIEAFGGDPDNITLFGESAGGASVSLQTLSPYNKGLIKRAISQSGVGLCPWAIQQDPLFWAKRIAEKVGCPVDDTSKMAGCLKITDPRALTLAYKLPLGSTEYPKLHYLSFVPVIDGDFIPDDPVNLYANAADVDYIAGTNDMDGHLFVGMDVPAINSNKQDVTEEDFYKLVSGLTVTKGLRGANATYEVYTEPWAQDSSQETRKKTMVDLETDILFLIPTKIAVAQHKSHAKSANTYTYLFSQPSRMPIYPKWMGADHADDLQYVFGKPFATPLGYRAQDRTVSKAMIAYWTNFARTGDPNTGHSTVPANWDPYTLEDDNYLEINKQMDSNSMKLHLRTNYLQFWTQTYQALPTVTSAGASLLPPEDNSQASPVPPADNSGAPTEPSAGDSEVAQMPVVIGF
In words: Bimolecular rate constant (ki) for the Pancreatic cholesterol esterase-catalyzed hydrolysis of 4-nitrophenyl butyrate. As to conditions: for kon: read-out: kon (M-1-s-1).

With `CCCCNC(=O)Oc1ccc2ccccc2c1-c1c(OC(=O)NCCCC)ccc2ccccc12` [Butyl-carbamic acid 2'-butylcarbamoyloxy-[1,1']binaphthalenyl-2-yl ester], the “kon (M-1-s-1)” value is 4000 M-1-s-1 and the kon (usually the second-order rate constant of association) came to 4000 M⁻¹ s⁻¹.
For the compound `CCCCNC(=O)Oc1ccc2ccccc2c1-c1c(O)ccc2ccccc12` [Butyl-carbamic acid 2'-hydroxy-[1,1']binaphthalenyl-2-yl ester], the “kon (M-1-s-1)” value is listed as 500000.000000 M-1-s-1 and the kon was determined as 500000 M⁻¹ s⁻¹.
Consider `CCCCNC(=O)Oc1ccc2ccccc2c1-c1c(OC(=O)CCC)ccc2ccccc12` [Butyric acid 2'-butylcarbamoyloxy-[1,1']binaphthalenyl-2-yl ester], for which the “kon (M-1-s-1)” value was 6000 M-1-s-1 and the kon stood at 6000 M⁻¹ s⁻¹.

The values are drawn from BindingDB's records for doi:10.1016/0960-894X(95)00549-9 (1996).
